This assay addresses T1, BA/F3-FLT3-ITD + D835Y cells (Homo sapiens, UniProt P36888, D835Y, cells depend on it, form not given).
T1 sequence (P36888 1-993 D835Y): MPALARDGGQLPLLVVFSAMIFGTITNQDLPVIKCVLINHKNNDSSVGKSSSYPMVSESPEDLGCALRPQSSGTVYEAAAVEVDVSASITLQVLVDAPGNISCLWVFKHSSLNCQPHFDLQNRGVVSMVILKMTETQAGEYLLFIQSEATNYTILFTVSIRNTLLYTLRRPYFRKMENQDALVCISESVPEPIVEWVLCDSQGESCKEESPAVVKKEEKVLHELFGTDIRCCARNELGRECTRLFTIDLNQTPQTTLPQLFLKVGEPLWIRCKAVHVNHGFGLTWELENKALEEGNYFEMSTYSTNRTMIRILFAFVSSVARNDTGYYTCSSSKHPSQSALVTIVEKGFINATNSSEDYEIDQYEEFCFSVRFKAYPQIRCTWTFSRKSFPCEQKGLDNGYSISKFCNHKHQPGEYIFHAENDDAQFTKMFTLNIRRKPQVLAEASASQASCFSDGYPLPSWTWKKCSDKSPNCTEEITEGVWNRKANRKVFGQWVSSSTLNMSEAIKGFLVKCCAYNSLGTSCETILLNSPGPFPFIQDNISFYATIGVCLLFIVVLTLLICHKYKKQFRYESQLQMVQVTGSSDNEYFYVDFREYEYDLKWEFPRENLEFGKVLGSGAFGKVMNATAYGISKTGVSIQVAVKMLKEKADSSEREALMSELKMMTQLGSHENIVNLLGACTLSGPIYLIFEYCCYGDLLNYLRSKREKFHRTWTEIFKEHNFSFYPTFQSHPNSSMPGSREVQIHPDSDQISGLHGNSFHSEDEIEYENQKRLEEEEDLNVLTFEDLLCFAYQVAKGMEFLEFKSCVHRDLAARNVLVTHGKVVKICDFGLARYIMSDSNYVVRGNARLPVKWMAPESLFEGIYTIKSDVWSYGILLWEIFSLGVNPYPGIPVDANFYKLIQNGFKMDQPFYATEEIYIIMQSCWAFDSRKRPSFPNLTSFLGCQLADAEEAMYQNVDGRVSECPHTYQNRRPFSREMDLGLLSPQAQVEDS
Kind of assay: Cell proliferation assay (CellTiter-Glo), engineered BA/F3 cells. The assay is classed as cell-based, murine. As to conditions: BaF3 FLT3 ITD/D835Y cells, 3d-Growth; read-out: BaF3_FLT3 ITD/D835Y 3d-Growth: IC50. The gist of the method:
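MOLM-14 AML cells (endogenous FLT3 ITD, AC220-selected D835Y or F691L variants) or murine Ba/F3 expressing full-length FLT3 ITD/D835Y, without IL-3 for FLT3 dependence, 1×10^4 cells/well. Eight-point 1:3 series from 1 μM final, 0.2% DMSO, 3 days at 37 °C. CellTiter-Glo luminescence (ATP) gave IC50.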

This passage reports GI50 results from US9938273B2 (Plexxikon Inc., priority 2015, dated 2018).

On to `CONC(=O)c1cccc(-c2cnc3[nH]c(-c4ccccc4)cc3c2)c1` [Compound P-0003, N-methoxy-3-(2-phenyl-1H-pyrrolo[2,3-b]pyridin-5-yl)benzamide], for which the GI50 is 0.0001 to 10 µM. To `C#Cc1cc2cc(-c3cccc(S(=O)(=O)NC4CC4)c3)cnc2[nH]1` [Compound P-0004, N-cyclopropyl-3-(2-ethynyl-1H-pyrrolo[2,3-b]pyridin-5-yl)benzenesulfonamide] belongs 0.0001 to 10 µM; to `NC(=O)Nc1ccc(-c2cnc3[nH]c(-c4ccccc4)cc3c2)cc1` [Compound P-0005, [4-(2-phenyl-1H-pyrrolo[2,3-b]pyridin-5-yl)phenyl]urea], 0.0001 to 10 µM; to `CNC(=O)Nc1ccc(-c2cnc3[nH]c(-c4ccccc4)cc3c2)cc1` [Compound P-0006, 1-methyl-3-[4-(2-phenyl-1H-pyrrolo[2,3-b]pyridin-5-yl)phenyl]urea], 0.0001 to 10 µM. The figure for `CN(C)S(=O)(=O)Nc1cccc(-c2cnc3[nH]c(-c4ccccc4)cc3c2)c1` [Compound P-0007, 5-[3-(dimethylsulfamoylamino)phenyl]-2-phenyl-1H-pyrrolo[2,3-b]pyridine] is 0.0001 to 10 µM; for `O=S(=O)(NC1CC1)c1cccc(-c2cnc3[nH]c(C#CCO)cc3c2)c1` [Compound P-0008, N-cyclopropyl-3-[2-(3-hydroxyprop-1-ynyl)-1H-pyrrolo[2,3-b]pyridin-5-yl]benzenesulfonamide] it is 0.0001 to 10 µM. To `CN(C)CC#Cc1cc2cc(-c3cccc(S(=O)(=O)NC4CC4)c3)cnc2[nH]1` [Compound P-0009, N-cyclopropyl-3-[2-[3-(dimethylamino)prop-1-ynyl]-1H-pyrrolo[2,3-b]pyridin-5-yl]benzenesulfonamide] belongs 0.0001 to 10 µM; to `O=S(=O)(NC1CC1)c1cccc(-c2cnc3[nH]c(C#CC4CCCCC4)cc3c2)c1` [Compound P-0010, 3-[2-(2-cyclohexylethynyl)-1H-pyrrolo[2,3-b]pyridin-5-yl]-N-cyclopropyl-benzenesulfonamide], 0.0001 to 10 µM. For `CC(C)(C)OC(=O)NC1CCN(C(=O)c2n[nH]c3ccc(-c4cnc5[nH]c(-c6ccccc6)cc5c4)cc23)CC1` [Compound P-0011, tert-butyl N-[1-[5-(2-phenyl-1H-pyrrolo[2,3-b]pyridin-5-yl)-1H-indazole-3-carbonyl]-4-piperidyl]carbamate], the GI50 lay within 0.0001 to 10 µM. The figure for `O=S(=O)(NC1CC1)c1cccc(-c2cnc3[nH]c(C#Cc4ccccc4)cc3c2)c1` [Compound P-0014, N-cyclopropyl-3-[2-(2-phenylethynyl)-1H-pyrrolo[2,3-b]pyridin-5-yl]benzenesulfonamide] is 0.0001 to 10 µM; for `N[C@H]1CCN(C(=O)c2cccc(-c3cnc4[nH]c(-c5ccccc5)cc4c3)n2)C1` [Compound P-0015, [(3S)-3-aminopyrrolidin-1-yl]-[6-(2-phenyl-1H-pyrrolo[2,3-b]pyridin-5-yl)-2-pyridyl]methanone] it is 0.0001 to 10 µM; for `N[C@H]1CCN(C(=O)c2n[nH]c3ccc(-c4cnc5[nH]c(-c6ccccc6)cc5c4)cc23)C1` [Compound P-0016, [(3S)-3-aminopyrrolidin-1-yl]-[5-(2-phenyl-1H-pyrrolo[2,3-b]pyridin-5-yl)-1H-indazol-3-yl]methanone] it is 0.0001 to 10 µM.

For the compound `CC(C)(C)OC(=O)NC1CCN(C(=O)c2cccc(-c3cnc4[nH]c(-c5ccccc5)cc4c3)n2)CC1` [Compound P-0017, tert-butyl N-[1-[6-(2-phenyl-1H-pyrrolo[2,3-b]pyridin-5-yl)pyridine-2-carbonyl]-4-piperidyl]carbamate], the GI50 lay in the range of 0.0001 to 10 µM. The figure for `CC(=O)NC1CCN(C(=O)c2cccc(-c3cnc4[nH]c(-c5ccccc5)cc4c3)n2)CC1` [Compound P-0020, N-[1-[6-(2-phenyl-1H-pyrrolo[2,3-b]pyridin-5-yl)pyridine-2-carbonyl]-4-piperidyl]acetamide] is 0.0001 to 10 µM.

With `CC(=O)NC1CCN(C(=O)c2n[nH]c3ccc(-c4cnc5[nH]c(-c6ccccc6)cc5c4)cc23)CC1` [Compound P-0021, N-[1-[5-(2-phenyl-1H-pyrrolo[2,3-b]pyridin-5-yl)-1H-indazole-3-carbonyl]-4-piperidyl]acetamide], the GI50 lay in the range of 0.0001 to 10 µM. As to `CN1CCC(NC(=O)c2n[nH]c3ccc(-c4cnc5[nH]c(-c6ccccc6)cc5c4)cc23)CC1` [Compound P-0022, N-(1-methyl-4-piperidyl)-5-(2-phenyl-1H-pyrrolo[2,3-b]pyridin-5-yl)-1H-indazole-3-carboxamide], the GI50 fell in the range of 0.0001 to 10 µM. The figure for `O=C(c1cccc(-c2cnc3[nH]c(-c4ccccc4)cc3c2)n1)N1CCC(CO)CC1` [Compound P-0023, [4-(hydroxymethyl)-1-piperidyl]-[6-(2-phenyl-1H-pyrrolo[2,3-b]pyridin-5-yl)-2-pyridyl]methanone] is 0.0001 to 10 µM. To `CCOC(=O)C1CCN(C(=O)c2cccc(-c3cnc4[nH]c(-c5ccccc5)cc4c3)n2)CC1` [Compound P-0025, ethyl 1-[6-(2-phenyl-1H-pyrrolo[2,3-b]pyridin-5-yl)pyridine-2-carbonyl]piperidine-4-carboxylate] belongs 0.0001 to 10 µM. To `NCC1CCN(C(=O)c2cccc(-c3cnc4[nH]c(-c5ccccc5)cc4c3)n2)CC1` [Compound P-0026, [4-(aminomethyl)-1-piperidyl]-[6-(2-phenyl-1H-pyrrolo[2,3-b]pyridin-5-yl)-2-pyridyl]methanone] belongs 0.0001 to 10 µM; to `CC1CCN(C(=O)c2n[nH]c3ccc(-c4cnc5[nH]c(-c6ccccc6)cc5c4)cc23)CC1` [Compound P-0027, (4-methyl-1-piperidyl)-[5-(2-phenyl-1H-pyrrolo[2,3-b]pyridin-5-yl)-1H-indazol-3-yl]methanone], 0.0001 to 10 µM. For the compound `CNC1CCN(C(=O)c2n[nH]c3ccc(-c4cnc5[nH]c(-c6ccccc6)cc5c4)cc23)C1` (centres unmarked) [Compound P-0028, [3-(methylamino)pyrrolidin-1-yl]-[5-(2-phenyl-1H-pyrrolo[2,3-b]pyridin-5-yl)-1H-indazol-3-yl]methanone], the GI50 fell in the range of 0.0001 to 10 µM.

Take `c1ccc(-c2cc3cc(-c4cccc(OC5CCNCC5)n4)cnc3[nH]2)cc1` [Compound P-0050, 2-phenyl-5-[6-(4-piperidyloxy)-2-pyridyl]-1H-pyrrolo[2,3-b]pyridine]: the GI50 is 0.0001 to 10 µM. With `N[C@H]1CCN(C(=O)c2ncc(-c3cnc4[nH]c(-c5ccccc5)cc4c3)s2)C1` [Compound P-0054, [(3S)-3-aminopyrrolidin-1-yl]-[5-(2-phenyl-1H-pyrrolo[2,3-b]pyridin-5-yl)thiazol-2-yl]methanone], the GI50 lay in the range of 0.0001 to 10 µM. The figure for `CC1(C#N)CCN(C(=O)c2cccc(-c3cnc4[nH]c(-c5ccccc5)cc4c3)n2)CC1` [Compound P-0094, 4-methyl-1-[6-(2-phenyl-1H-pyrrolo[2,3-b]pyridin-5-yl)pyridine-2-carbonyl]piperidine-4-carbonitrile] is 0.0001 to 10 µM. Take `COC1CCN(C(=O)c2cccc(-c3cnc4[nH]c(-c5ccccc5)cc4c3)n2)CC1` [Compound P-0098, (4-methoxy-1-piperidyl)-[6-(2-phenyl-1H-pyrrolo[2,3-b]pyridin-5-yl)-2-pyridyl]methanone]: the GI50 fell in the range of 0.0001 to 10 µM. To `CS(=O)(=O)NC1CCN(C(=O)c2cccc(-c3cnc4[nH]c(-c5ccccc5)cc4c3)n2)C1` (centres unmarked) [Compound P-0101, N-[1-[6-(2-phenyl-1H-pyrrolo[2,3-b]pyridin-5-yl)pyridine-2-carbonyl]pyrrolidin-3-yl]methanesulfonamide] belongs 0.0001 to 10 µM; to `O=C(c1cccc(-c2cnc3[nH]c(-c4ccccc4)cc3c2)n1)N1CCC(N2CCOCC2)C1` (centres unmarked) [Compound P-0102, (3-morpholinopyrrolidin-1-yl)-[6-(2-phenyl-1H-pyrrolo[2,3-b]pyridin-5-yl)-2-pyridyl]methanone], 0.0001 to 10 µM.

As to `O=C(c1cccc(-c2cnc3[nH]c(-c4ccccc4)cc3c2)n1)N1CCC(C(F)(F)F)C1` (centres unmarked) [Compound P-0103, [6-(2-phenyl-1H-pyrrolo[2,3-b]pyridin-5-yl)-2-pyridyl]-[3-(trifluoromethyl)pyrrolidin-1-yl]methanone], the GI50 was 0.0001 to 10 µM. The figure for `CN(C)C1CCN(C(=O)c2cccc(-c3cnc4[nH]c(-c5ccccc5)cc4c3)n2)C1` (centres unmarked) [Compound P-0104, [3-(dimethylamino)pyrrolidin-1-yl]-[6-(2-phenyl-1H-pyrrolo[2,3-b]pyridin-5-yl)-2-pyridyl]methanone] is 0.0001 to 10 µM.
